The results in this text go back to patent publication US9938267B2, “Heterocyclic inhibitors of glutaminase” (Calithera Biosciences, Inc., priority 2011, dated 2018).

The first assay deals with P493-6 (myc "on") cells. Kind of assay: Cell proliferation assay (72 hrs, Cell Titer Glo or Viacount FACS). It is filed as cell-based. Particulars: P493-6 (myc on) cells, 72 hrs; read-out: Cell prolif P493 IC50. How it is done:
P493-6 (myc “on”) cells were maintained in growth media (RPMI-1640, 10% FBS, 2 mM glutamine, 100 units/ml Penicillin and 100 μg/ml streptomycin) at 37° C. with 5% CO2. For compound assay, P493-6 cells were plated in 96-well V-bottom plates on the day of compound addition in 50 μl of growth media at a cell density of 200,000 cells/ml (10,000 cells/well). Compounds were serially diluted in 100% DMSO at 200-times the final concentration. Compounds were diluted 100-fold into growth media and then 50 μl of this mixture was added to cell plates making the final concentration of DMSO 0.5%. Cells were incubated with compound for 72 hrs at 37° C. with 5% CO2 and analyzed for antiproliferative effects either by Cell Titer Glo (Promega) or FACS analysis using the Viacount (Millipore) kit on the Guava instrument.
(Cellular ATP, detected with luciferase, serves as a proxy for viable cell number.)
On to `CC(C(=O)Nc1nnc(CCCCc2ccc(NC(=O)Cc3ccccc3)nn2)s1)c1ccc(F)c(CNC(=O)OC(C)(C)C)c1` (stereo not drawn) [Compound 568], for which the IC50 stood at 28 nM.
Still for that read-out and setting: the same measure for `O=C(Cc1cccc(OC(F)(F)F)c1)Nc1ccc(CCCCc2nnc(NC(=O)Cn3c(CN4CCOCC4)nc4ccccc43)s2)nn1` [Compound 702]: 310 nM; for `CCNC(=O)CC(C)c1cccc(CC(=O)Nc2ccc(CCCCc3nnc(NC(=O)Cc4cccc(OC(F)(F)F)c4)s3)nn2)c1` (stereo not drawn) [Compound 596]: 330 nM.
Take `CCCC(=O)OCN(C(=O)C(CO)c1cccc(CNC(=O)OC(C)(C)C)c1)c1nnc(CCCCc2ccc(NC(=O)Cc3ccccc3)nn2)s1` (stereo not drawn) [Compound 567]: the IC50 amounted to 21 nM.
As to `O=C(Cc1ccc(OC(F)(F)F)cc1)Nc1ccc(CCCCc2nnc(NC(=O)Cc3ccccc3)s2)nn1` [Compound 615], the IC50 came to 12 nM.
Take `CC1(CC(=O)Nc2ccc(CCCCc3nnc(NC(=O)Cc4cccc(CNC(=O)OC(C)(C)C)c4)s3)nn2)COC(C)(C)OC1` [Compound 529]: the IC50 was found to be 160 nM.

The assay is the same for the next values; noted with them: P493-6, read-out: Cell prolif P493 72 h IC50; P493 cells, 72 h.
For the compound `CCOc1ccccc1CC(=O)Nc1nnc(CCCCc2nnc(NC(=O)Cc3ccccc3OC)s2)s1` [Compound 300], the IC50 is 160 nM.
As for `CCOC(=O)Nc1nnc(CCCCc2nnc(NC(=O)Cc3ccccc3)s2)s1` [Compound 369], the IC50 was 1900 nM.
On the same count and under the same terms, the same measure for `O=C(C[C@@H](O)c1ccccc1)Nc1nnc(CCSCCc2nnc(NC(=O)C[C@@H](O)C3CCCCC3)s2)s1` [Compound 126]: 12000 nM.

The assay is the same for the next values; noted with them: read-out: Cell prolif P493 72 h IC50; P493 cells, 72 h.
For `CCOC(=O)Nc1nnc(CCCCc2nnc(NC(=O)Cc3ccccc3)s2)s1` [Compound 244], the IC50 came to 1700 nM.
For the compound `Nc1cccc(CC(=O)Nc2nnc(CCCCc3nnc(NC(=O)Cc4cccc(N)c4)s3)s2)c1` [Compound 329], the IC50 was 450 nM.
As for `COc1cccc(CC(=O)Nc2nnc(CCSCCc3nnc(NC(=O)Cc4cccc(OC)c4OC)s3)s2)c1OC` [Compound 259], the IC50 is 570 nM.
Same read-out and setting: the same measure for `COc1cccc(C(CO)C(=O)Nc2nnc(CCSCc3nnc(NC(=O)C(CO)c4cccc(OC)c4)s3)s2)c1` (stereo not drawn) [Compound 258]: 180 nM.
Regarding `COc1ccccc1CC(=O)Nc1nnc(CCCCc2nnc(NC(=O)Cc3ccccc3OC)s2)s1` [Compound 264], the IC50 stood at 10 nM.
The same measure, in the same setting: the same measure for `CC(C(=O)Nc1nnc(CCCCc2nnc(NC(=O)C(C)c3ccccc3Cl)s2)s1)c1ccccc1Cl` (stereo not drawn) [Compound 274]: 680 nM; for `O=C(CN1C(=O)OC[C@H]1c1ccccc1)Nc1nnc(CCSCCc2nnc(NC(=O)CN3C(=O)OC[C@H]3c3ccccc3)s2)s1` [Compound 243]: 33000 nM; for `COC(C(=O)Nc1nnc(CCSCCc2nnc(NC(=O)C(OC)c3ccccc3)s2)s1)c1ccccc1` (stereo not drawn) [Compound 67]: 1800 nM.
The same measure, in the same setting: the same measure for `O=C(Cc1cccc(OCCN2CCOCC2)c1)Nc1nnc(CCSCCc2nnc(NC(=O)Cc3cccc(OCCN4CCOCC4)c3)s2)s1` [Compound 240]: 1300 nM; for `O=C(Cc1cccc(OCCO)c1)Nc1nnc(CCSCCc2nnc(NC(=O)Cc3cccc(OCCO)c3)s2)s1` [Compound 236]: 1400 nM; for `COc1ccccc1CC(=O)Nc1nnc(CCSCCc2nnc(NC(=O)C(CO)c3ccccc3OC)s2)s1` (stereo not drawn) [Compound 246]: 1600 nM.
Take `O=C(Cc1cccc(-n2cccn2)c1)Nc1nnc(CCCCc2nnc(NC(=O)Cc3cccc(-n4cccn4)c3)s2)s1` [Compound 285]: the IC50 is 140 nM.
On the same count and under the same terms, with `COc1cccc(C(CO)C(=O)Nc2nnc(CCCCc3nnc(NC(=O)C(CO)c4cccc(OC)c4)s3)s2)c1` (stereo not drawn) [Compound 257] the figure was 73 nM.
Still for that read-out and setting: with `Cc1ccccc1C(C)C(=O)Nc1nnc(CCSCCc2nnc(NC(=O)C(C)c3ccccc3C)s2)s1` (stereo not drawn) [Compound 262] the figure was 3100 nM.
For the compound `Cc1cccc(CC(=O)Nc2nnc(CCSCCc3nnc(NC(=O)Cc4cccc(C)c4)s3)s2)c1` [Compound 247], the IC50 worked out at 830 nM.
In the case of `COc1ccccc1CC(=O)Nc1nnc(CCSCc2nnc(NC(=O)Cc3ccccc3OC)s2)s1` [Compound 249], the IC50 worked out at 160 nM.
Same read-out and setting: the same measure for `O=C(Cc1ccc2ncccc2c1)Nc1nnc(CCSCCc2nnc(NC(=O)Cc3ccc4ncccc4c3)s2)s1` [Compound 268]: 5400 nM; for `CC(C)(C)OC(=O)N1CCN(Cc2cccc(CC(=O)Nc3nnc(CCSCc4nnc(NC(=O)Cc5cccc(CN6CCN(C(=O)OC(C)(C)C)CC6)c5)s4)s3)c2)CC1` [Compound 275]: 340 nM.
Still for that read-out and setting: the same measure for `O=C(Cc1cccc(OCCN2CCOCC2)c1)Nc1nnc(CCSCc2nnc(NC(=O)Cc3cccc(OCCN4CCOCC4)c3)s2)s1` [Compound 267]: 640 nM; for `COc1cccc(CC(=O)Nc2nnc(CCCCc3nnc(NC(=O)Cc4cccc(OC)c4OC)s3)s2)c1OC` [Compound 260]: 84 nM.
Same read-out and setting: with `CC(C(=O)Nc1nnc(CCSCCc2nnc(NC(=O)C(C)c3ccccc3Cl)s2)s1)c1ccccc1Cl` (stereo not drawn) [Compound 261] the figure was 2600 nM; with `O=C(Cc1cccc(Br)c1)Nc1nnc(CCSCCc2nnc(NC(=O)Cc3cccc(Br)c3)s2)s1` [Compound 270], 850 nM.
On to `O=C(Cc1ccc2ncccc2c1)Nc1nnc(CCCCc2nnc(NC(=O)Cc3ccc4ncccc4c3)s2)s1` [Compound 269], for which the IC50 worked out at 520 nM.
On the same count and under the same terms, the same measure for `O=C(Cc1cccc(-n2ccnc2)c1)Nc1nnc(CCCCc2nnc(NC(=O)Cc3cccc(-n4ccnc4)c3)s2)s1` [Compound 363]: more than 20000 nM; for `CC(C)(C)OC(=O)Nc1cccc(CC(=O)Nc2nnc(CCCCc3nnc(NC(=O)Cc4cccc(NC(=O)OC(C)(C)C)c4)s3)s2)c1` [Compound 327]: 150 nM.
Still for that read-out and setting: the same measure for `O=C(Cc1cccc(Cn2cccn2)c1)Nc1nnc(CCCCc2nnc(NC(=O)Cc3cccc(Cn4cccn4)c3)s2)s1` [Compound 362]: 54 nM; for `O=C(Cc1cccs1)Nc1nnc(CCSCc2nnc(NC(=O)Cc3cccs3)s2)s1` [Compound 237]: 250 nM.
Still for that read-out and setting: the same measure for `COc1cccc(CC(=O)Nc2nnc(CCSCc3nnc(NC(=O)Cc4cccc(OC)c4)s3)s2)c1` [Compound 250]: 140 nM; for `O=C(O)Cc1cccc(CC(=O)Nc2nnc(CCCCc3nnc(NC(=O)Cc4cccc(CC(=O)O)c4)s3)s2)c1` [Compound 313]: 94000 nM.

A further assay addresses recombinant form of Glutaminase 1 (GAC) (Homo sapiens, UniProt O94925). Kind of assay: Recombinant enzyme assay (GAC, GDH-coupled absorbance, no preincubation). It is filed as biochemical. The settings on record: read-out: GAC Delta N2 IC50 no preinc. The procedure: Enzymatic reaction was started with the addition of 50 μL of enzyme solution (50 mM Tris-HCl pH 8.0, 0.2 mM EDTA, 150 mM K2HPO4, 0.1 mg/ml BSA, 1 mM DTT, 10 ppm antifoam, 4 units/ml GDH, 4 mM adenosine diphosphate, and 4 nM GAC) and read in a Molecular Devices M5 plate reader at 20° C. The plate reader was configured to read absorbance (λ=340 nm) in kinetic mode for 15 minutes. Data was recorded as milli-absorbance units per minute and slopes were compared to a control compound and a DMSO-only control on the same plate. Compounds with slopes less than the DMSO control were considered inhibitors and plate variability was assessed using the control compound.
For the compound `Nc1cccc(CC(=O)Nc2nnc(CCCCc3nnc(NC(=O)Cc4cccc(N)c4)s3)s2)c1` [Compound 329], the IC50 was determined as 170 nM.
Regarding `CC[C@](O)(C(=O)Nc1nnc(CCCCc2nnc(NC(=O)[C@@](O)(CC)c3ccccc3)s2)s1)c1ccccc1` (single isomer, unassigned) [Compound 144], the IC50 is more than 20000 nM.
As for `O=C(Cc1cc2ccccc2s1)Nc1cnc(CCSCCc2nnc(NC(=O)Cc3cc4ccccc4s3)s2)s1` [Compound 207], the IC50 is 13000 nM.
For `O=C(Cc1ccc(Cl)s1)Nc1cnc(CCSCCc2nnc(NC(=O)Cc3ccc(Cl)s3)s2)s1` [Compound 206], the IC50 is more than 20000 nM.
The same measure, in the same setting: with `O=C(Cc1ccccc1)Nc1ccc(CCCCc2nnc(NC(=O)Cc3cccc(O)c3)s2)nn1` [Compound 337] the figure was 76 nM.
Regarding `O=C(Cc1cc2ccccc2o1)Nc1nnc(CCSCCc2nnc(NC(=O)Cc3cc4ccccc4o3)s2)s1` [Compound 193], the IC50 was 3400 nM.
For `CC1(C)O[C@@H](C(=O)Nc2nnc(CCCCc3nnc(NC(=O)[C@@H]4OC(C)(C)O[C@H]4c4ccccc4)s3)s2)[C@H](c2ccccc2)O1` [Compound 223], the IC50 was more than 20000 nM.
Same read-out and setting: with `CC(C)(C)OC(=O)Nc1ccc(CC(=O)Nc2nnc(CCCCc3nnc(NC(=O)Cc4ccc(NC(=O)OC(C)(C)C)cc4)s3)s2)cc1` [Compound 192] the figure was more than 20000 nM; with `O=C(Cc1nnc(CCSCCc2nnc(NC(=O)C3CCOCC3)s2)s1)C1CCOCC1` [Compound 108], more than 20000 nM.
The same measure, in the same setting: the same measure for `O=C(Nc1nnc(CCCCc2nnc(NC(=O)C3COc4ccccc43)s2)s1)C1COc2ccccc21` (stereo not drawn) [Compound 135]: 300 nM.
On the same count and under the same terms, the same measure for `COc1cc(CC(=O)Nc2nnc(CCSCCc3nnc(NC(=O)Cc4cc(OC)cc(OC)c4)s3)s2)cc(OC)c1` [Compound 202]: 180 nM.
As for `CC(C)(C)c1ccc(CC(=O)Nc2nnc(CCCCc3nnc(NC(=O)Cc4ccc(C(C)(C)C)cc4)s3)s2)cc1` [Compound 191], the IC50 was more than 20000 nM.
As for `CCOc1ccccc1CC(=O)Nc1nnc(CCCCc2nnc(NC(=O)Cc3ccccc3OC)s2)s1` [Compound 300], the IC50 is 160 nM.
Same read-out and setting: the same measure for `O=C(N[C@@H](CO)C(=O)Nc1nnc(CCSCCc2nnc(NC(=O)[C@H](CO)NC(=O)OCc3ccccc3)s2)s1)OCc1ccccc1` [Compound 138]: 750 nM.
For `COc1cccc(CC(=O)Nc2nnc(CCSCc3nnc(NC(=O)Cc4cccc(OC)c4)s3)s2)c1` [Compound 250], the IC50 was 120 nM.
Consider `O=C(O)Cc1cccc(CC(=O)Nc2nnc(CCCCc3nnc(NC(=O)Cc4cccc(CC(=O)O)c4)s3)s2)c1` [Compound 313], for which the IC50 is 270 nM.
